One series concerns GIST. Particulars: 345 patients, 400 mg/day, cited from earlier work.
The next series has as its system advanced GIST. Particulars: cited from earlier work.
The target in series [1] is c-Kit gain-of-function mutant V559D (exon 11) (Homo sapiens, UniProt P10721, V559D). Conditions: in vitro; cited from earlier work.

Each structure is given as a SMILES string.

For the compound `Cc1ccc(NC(=O)Nc2ccccc2F)cc1Nc1nc(-c2cccnc2)cs1` [Compound 023, 1-(2-Fluoro-phenyl)-3-[4-methyl-3-(4-pyridin-3-yl-thiazol-2-ylamino)-phenyl]-urea], the melting point (usually the temperature, or range, at which the solid turns liquid) lay in the range of 203 to 206 °C.

As for `Cc1ccc(NC(=O)Nc2cccc(F)c2)cc1Nc1nc(-c2cccnc2)cs1` [Compound 025, 1-(3-Fluoro-phenyl)-3-[4-methyl-3-(4-pyridin-3-yl-thiazol-2-ylamino)-phenyl]-urea], the melting point lay in the range of 210 to 215 °C.

`Cc1ccc(NC(=O)Nc2ccc(C)c(Nc3nc(-c4cccnc4)cs3)c2)cc1` [Compound 026, 1-[4-Methyl-3-(4-pyridin-3-yl-thiazol-2-ylamino)-phenyl]-3-p-tolyl-urea]: the melting point is 238 to 240 °C.

The compound `Cc1ccc(NC(=O)c2ccc(NS(=O)(=O)c3cccs3)cc2)cc1Nc1nc(-c2cccnc2)cs1` [Compound 044, N-[4-Methyl-3-(4-pyridin-3-yl-thiazol-2-ylamino)-phenyl]-4-(thiophene-2-sulfonylamino)-benzamide] yielded a melting point of 230 to 233 °C.

For `Cc1ccc(NC(=O)c2cccc(F)c2)cc1Nc1nc(-c2cccnc2)cs1` [Compound 045, 3-Fluoro-N-[4-methyl-3-(4-pyridin-3-yl-thiazol-2-ylamino)-phenyl]-benzamide], the melting point lay within 184 to 186 °C.

`Cc1ccc(NC(=O)c2ccc(-c3ccncc3)cc2)cc1Nc1nc(-c2cccnc2)cs1` [Compound 046, N-[4-Methyl-3-(4-pyridin-3-yl-thiazol-2-ylamino)-phenyl]-4-pyridin-4-yl-benzamide] returned a melting point of 254 to 256 °C.

On to `Cc1ccc(NC(=O)c2ccc(N(C)C)cc2)cc1Nc1nc(-c2cccnc2)cs1` [Compound 047, 4-Dimethylamino-N-[4-methyl-3-(4-pyridin-3-yl-thiazol-2-ylamino)-phenyl]-benzamide], for which the melting point is 147 to 150 °C.

For the compound `Cc1ccc(F)c(C(=O)Nc2ccc(C)c(Nc3nc(-c4cccnc4)cs3)c2)c1` [Compound 048, 2-Fluoro-5-methyl-N-[4-methyl-3-(4-pyridin-3-yl-thiazol-2-ylamino)-phenyl]-benzamide], the melting point fell in the range of 103 to 106 °C.

Take `Cc1ccc(NC(=O)c2ccc(C(C)(C)C)cc2)cc1Nc1nc(-c2cccnc2)cs1` [Compound 049, 4-tert-Butyl-N-[4-methyl-3-(4-pyridin-3-yl-thiazol-2-ylamino)-phenyl]-benzamide]: the melting point was 145 to 150 °C.

In turn, `Cc1ccc(NC(=O)c2cccc(OCCN3CCOCC3)c2)cc1Nc1nc(-c2cccnc2)cs1` [Compound 052, N-[4-Methyl-3-(4-pyridin-3-yl-thiazol-2-ylamino)-phenyl]-3-(2-morpholin-4-yl-ethoxy)-benzamide] had a melting point of 75 to 80 °C.

For `COc1cccc(C(=O)Nc2ccc(C)c(Nc3nc(-c4cccnc4)cs3)c2)c1` [Compound 059], the melting point is 76 to 79 °C.

Consider `Cc1ccc(NC(=O)c2cccc(N(C)C)c2)cc1Nc1nc(-c2cccnc2)cs1` [Compound 088, 3-Dimethylamino-N-[4-methyl-3-(4-pyridin-3-yl-thiazol-2-ylamino)-phenyl]-benzamide], for which the melting point lay in the range of 197 to 198 °C.

Compound `Cc1ccc(NC(=O)c2cccc(N3CCOCC3)c2)cc1Nc1nc(-c2cccnc2)cs1` [Compound 090, N-[4-Methyl-3-(4-pyridin-3-yl-thiazol-2-ylamino)-phenyl]-3-morpholin-4-yl-benzamide] showed a melting point of 247 to 248 °C.

`Cc1ccc(NC(=O)CCCN2CCOCC2)cc1Nc1nc(-c2cccnc2)cs1` [Compound 096, N-[4-Methyl-3-(4-pyridin-3-yl-thiazol-2-ylamino)-phenyl]-4-morpholin-4-yl-butyramide]: the melting point fell in the range of 116 to 120 °C.

Take `Cc1ccc(NC(=O)c2ccc(CN3CCN(C)CC3)cc2)cc1Nc1nccc(-c2cccnc2)n1` [imatinib]: the “median PFS” value in the series on GIST (95% CI [16-21]) is listed as 18 months. In the series on GIST (95% CI [36-47]), the “2-year PFS rate” value is 46%. The “Median overall survival (OS)” value with GIST (95% CI [47-62]) was 55 months. Further, the 2-year survival in the series on GIST (95% CI [67-77]) is listed as 72%. Also, in the series on GIST, the 3-year survival is around 61%. Further, the “2-year survival rate of patients with advanced GIST” value with advanced GIST (after introduction of imatinib (pre-imatinib 25%)) is “about 70%”. In addition, in the series with advanced GIST (in vivo), the “early resistance (progression within the first 6 months, no response), patients” value is listed as 10-15%.

As for `CS(=O)(=O)O.CS(=O)(=O)O.Cc1ccc(NC(=O)c2ccc(CN3CCN(C)CC3)cc2)cc1Nc1nc(-c2cccnc2)cs1` [masitinib mesilate, 4-(4-methylpiperazin-1-ylmethyl)-N-[4-methyl-3-(4-pyridin-3ylthiazol-2-ylamino)phenyl]benzamide-mesylate methane sulfonic acid salt], the “inhibition of c-Kit mutant V559D (exon 11)” value in series [1] was “potently inhibits”.

Source of the values: US20110201620A1, “2-(3-AMINOARYL) AMINO-4-ARYL-THIAZOLES AND THEIR USE AS C-KIT INHIBITORS” (AB SCIENCE, priority 2002, published 2011).
